Where a name gives a salt, the structure may show the parent alone. Read-outs that look alike come from different tables or passages of the source.
What was measured:
[1] = test system: mtDNA production in human PBMCs
[2] = Intracellular concentration of compound in HepG2.2.15 cells; format: in vitro ADME, human; details: 100 µM, 6 hours incubation
[3] = Cytotoxicity, MTT assay, MT-2 cells; format: cell-based; details: human
[4] = Cytotoxicity, MTT assay, HepG2 cells; format: cell-based; details: human
HBVWT^C2 [5] = assay: Anti-HBV qPCR assay in HBV-exposed PXB-cells; format: cell-based, Hepatitis B virus; details: for IC50: Hepatitis B virus, read-out: IC50^qPCR_cell; for IC95^qPCR_sup / IC95^qPCR_cell: PXB-cells; for IC95^qPCR_sup: HBVWT^C2, HBV-DNA in culture medium blocked by 95%; for IC95^qPCR_cell: HBVWT^C2, intracellular HBV-DNA blocked by 95%
[6] = Cytotoxicity, LDH release assay, primary hepatocytes; details: human
HBVWT^D1 [7] = details: high concentrations (100 and 1,000 nM), HepG2.2.15 cells
[8] = Cytotoxicity, Neutral Red staining assay, primary hepatocytes; details: human
[9] = test system: MOT-4 cells and human primary peripheral blood mononuclear cells; assay: Cell proliferation assays in MOT-4 cells and human PBMCs; format: cell-based
[10] = Cytotoxicity, MTT assay, PXB-cells; format: cell-based; details: human
HBVWT^D1 [11] = assay: microbe, parasite or virus in culture; details: Hepatitis B virus, HepG2.2.15, read-out: IC50^qPCR_cell
[12] = test system: mtDNA production in PXB-cells
HBVWT^D1 [13] = assay: microbe, parasite or virus in culture; format: cell-based, Hepatitis B virus
HIV-1LAI = assay: Anti-HIV assay; format: cell-based; details: Human immunodeficiency virus 1, read-out: IC50^MTT
HBV [14] = assay: Combination of E-CFCP with GLS4, HBV-DNA production by HepG2.2.15 cells; format: cell-based, Hepatitis B virus
[15] = Acid resistance: anti-HBV activity after pH 2 exposure; format: physicochemical; details: pH 2, 5 and 60 minutes at 37 °C, then tested in HepG2.2.15 cells
[16] = Body weights and serum human albumin in treated PXB-mice; format: in vivo
HBVWT^C2 [17] = assay: Antiviral effect in chronically HBVWT^C2-infected PXB-mice; format: in vivo; details: for reduction of serum HBVWT^C2-DNA copies: day 21
[18] = Cytotoxicity, MTT assay, Huh7 cells; format: cell-based; details: human
HBV [19] = details: 90 mg/kg/day, 3-week administration, HBV-infected PXB-mice; cited from earlier work
[20] = Intracellular concentrations of phosphorylated forms in HepG2.2.15 cells; format: in vitro ADME, human
[21] = 10 µM, 6 days of culture without compound

For `C=C1C(n2cnc3c(=O)[nH]c(N)nc32)CC(O)C1(C#N)CO` (stereo not drawn) [CMCdG], the “inhibition of mtDNA production (in words)” value ([1]; human PBMCs and PXB-cells) was “non-toxic”.
In the case of `N#C[C@]1(CO)/C(=C\F)[C@@H](n2cnc3c(=O)[nH]c(N)nc32)C[C@@H]1O` [E-CFCP], the intracellular concentration [2] is reported as “approximately 200 pmol/2×10^6 cells”, the Mitotox50 ([1]; human PBMCs, mtDNA production) is reported as 38.2 µM and the CC50 ([3]; MT-2 cells) is reported as 306 µM. For the same molecule, the CC50 ([4]; HepG2 cells) was 115 µM, the IC50 (HBVWT^C2 [5]) was 0.01 nM and the “IC95^qPCR_sup” value (HBVWT^C2 [5]) was 0.0035 µM. The “IC95^qPCR_cell” value (HBVWT^C2 [5]) was 0.339 µM, the CC50 ([6]; primary hepatocytes) was over 100 µM and the “inhibition of HBV-DNA production” value (HBVWT^D1 [7]) was 100%. The CC50 ([8]; primary hepatocytes) was over 100 µM, the “cell proliferation safety profile (in words)” value [9] was “highly favorable safety profiles” and the CC50 ([10]; PXB-cells) was over 500 µM. For the same molecule, the IC50 (HBVWT^D1 [11]) was 0.0018 µM, the Mitotox50 ([12]; PXB-cells, mtDNA production) was 29.6 µM and the HBV-DNA synthesis blockade (HBVWT^D1 [13]; [21]) was 100%. The HBV-DNA synthesis blockade (HBVWT^D1 [13]; 10 µM, 16 days of culture without compound) was over 80%, the “% inhibition of HBVWT^D1-DNA production” value (HBVWT^D1 [13]; 10 µM, exposed 11 days, 14 days of culture without compound) was over 90% and the “persistence of anti-HBV activity (>80% Inhibition) after compound removal” value (HBVWT^D1 [13]; HepG2.2.15 cells) was about 16 days. The IC50 (HIV-1LAI) was 0.205 ± 0.0238 µM, the “combination effect with GLS4 (Chou-Talalay Method)” value (HBV [14]; 1 and 10 nM E-CFCP with GLS4 at the same concentration) was “synergism was observed” and the “combination effect with GLS4 (Chou-Talalay Method)” value (HBV [14]; 100 and 1,000 nM E-CFCP with GLS4 at the same concentration) was “no synergism was detected”. For the same molecule, the “anti-HBV activity after pH 2 exposure” value [15] was “comparable to pH 2-unexposed E-CFCP”, the “changes in body weights or serum human albumin levels” value ([16]; 0.2 mg/kg/day for 2 weeks, HBVWT^C2-infected PXB-mice) was “No significant changes” and the “changes of body weights and human serum albumin over 8 weeks” value ([16]; once daily 0.2 mg/kg/day, E-CFCP-receiving vs ETV-receiving mice) was “no significant changes”. For the same molecule, the “reduction of serum HBVWT^C2-DNA copies” value (HBVWT^C2 [17]; 0.02 mg/kg/day for two weeks) was 2.2±0.06 log, the “persistence of reduction after administration cessation” value (HBVWT^C2 [17]; 0.2 mg/kg/day) was at least 3 weeks and the “reduction of serum HBVWT^C2-DNA copies” value (HBVWT^C2 [17]; 0.2 mg/kg/day for two weeks) was 2.6±0.1 log. For the same molecule, the “persistence of reduction following treatment cessation” value (HBVWT^C2 [17]; PXB-mice, 0.02∼0.2 mg/kg/day) was 1–3 weeks, the “reduction of HBVWT^C2-viremia” value (HBVWT^C2 [17]; once-daily peroral, 2 weeks, 0.02∼0.2 mg/kg/day) was 2–3 logs and the CC50 ([18]; Huh7 cells) was over 500 µM.
With `C=C1[C@H](CO)[C@@H](O)C[C@@H]1n1cnc2c(=O)[nH]c(N)nc21` [ETV, entecavir] the Mitotox50 ([1]; human) was 40.4 µM, the IC50 (HBVWT^C2 [5]) was 0.13 nM and the “IC95^qPCR_sup” value (HBVWT^C2 [5]) was 0.079 µM. For the same molecule, the “IC95^qPCR_cell” value (HBVWT^C2 [5]) was 0.859 µM, the “inhibition of HBV-DNA production” value (HBVWT^D1 [7]) was under 100% and the Mitotox50 ([12]; human) was 35.2 µM. The HBV-DNA synthesis blockade (HBVWT^D1 [13]; [21]) was under 80% and the “reduction of serum HBVWT^C2-DNA copy numbers” value (HBVWT^C2 [17]; 0.02 mg/kg/day, two weeks, at conclusion of administration (day 14)) was 2.0±0.07 log.
`CC(C)OC(=O)[C@H](C)N[P@](=O)(CO[C@H](C)Cn1cnc2c(N)ncnc21)Oc1ccccc1` [TAF, tenofovir alafenamide, reference compound] gave a CC50 [3] of 21 µM, a CC50 [4] of 22 µM and an IC50 (HBVWT^C2 [5]) of 0.59 nM. The “IC95^qPCR_sup” value (HBVWT^C2 [5]) was 0.09 µM, the “IC95^qPCR_cell” value (HBVWT^C2 [5]) was 0.513 µM and the CC50 [6] was 97 µM. For the same molecule, the “inhibition of HBV-DNA production” value (HBVWT^D1 [7]) was under 100%, the CC50 [8] was 26 µM and the CC50 [10] was 8.2 µM. It also gave an inhibition at 1 µM (HBVWT^D1 [13]; Hepatitis B virus, HepG2.2.15, read-out: HBV-DNA production inhibition) of 90% and a CC50 [18] of 34 µM.
In the case of `CC(C)OC(=O)OCOP(=O)(CO[C@H](C)Cn1cnc2c(N)ncnc21)OCOC(=O)OC(C)C` [TDF, tenofovir disoproxil fumarate], the viral load reduction (HBV [19]) is given as “approximately 1.5 logs”.
In the case of `C[C@@H](Cn1cnc2c(N)ncnc21)OCP(=O)(O)OP(=O)(O)OP(=O)(O)O` [TFV-DP], the “intracellular phosphorylated form (in words)” value [20] is reported as “not detected by day 3 and beyond”.
Work on `N#C[C@]1(CO)/C(=C/F)[C@@H](n2cnc3c(=O)[nH]c(N)nc32)C[C@@H]1O` [Z-CFCP] yielded an IC50 (HBVWT^D1 [11]) of 0.414 µM.
In the case of `Nc1ccn([C@H]2CC[C@@H](CO)O2)c(=O)n1` [zalcitabine/ddC, zalcitabine], the “inhibition of mtDNA production (in words)” value [1] is reported as “strongly blocked mtDNA production”.

From publication PMC9703152 (Journal of hepatology, 2020)
